According to ChEMBL document CHEMBL1159254, “Isolation and structure of two novel muscarinic receptor antagonists” (J Nat Prod, 1995):

How the values were obtained:
[1] = biological target: T1, Muscarinic acetylcholine receptor M1 (Homo sapiens, UniProt P11229); assay: Displacement of QNB from muscarinic M1 receptor
T1 sequence (P11229 whole entry): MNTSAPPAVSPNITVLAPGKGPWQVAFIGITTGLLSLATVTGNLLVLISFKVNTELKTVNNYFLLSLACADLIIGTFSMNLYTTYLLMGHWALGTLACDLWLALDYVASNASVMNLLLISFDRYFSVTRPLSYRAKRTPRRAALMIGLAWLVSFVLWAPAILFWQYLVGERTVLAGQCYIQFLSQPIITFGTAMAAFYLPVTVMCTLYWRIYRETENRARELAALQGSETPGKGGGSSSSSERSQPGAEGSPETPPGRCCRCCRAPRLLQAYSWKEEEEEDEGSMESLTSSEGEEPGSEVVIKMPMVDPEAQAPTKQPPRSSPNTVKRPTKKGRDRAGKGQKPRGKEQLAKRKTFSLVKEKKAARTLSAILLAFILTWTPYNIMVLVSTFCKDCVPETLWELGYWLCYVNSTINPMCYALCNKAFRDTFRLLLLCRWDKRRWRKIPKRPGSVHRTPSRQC

[2] = biological target: T2, Muscarinic acetylcholine receptor M4 (Homo sapiens, UniProt P08173); assay: Displacement of QNB from muscarinic M4 receptor
T2 sequence (P08173 whole entry): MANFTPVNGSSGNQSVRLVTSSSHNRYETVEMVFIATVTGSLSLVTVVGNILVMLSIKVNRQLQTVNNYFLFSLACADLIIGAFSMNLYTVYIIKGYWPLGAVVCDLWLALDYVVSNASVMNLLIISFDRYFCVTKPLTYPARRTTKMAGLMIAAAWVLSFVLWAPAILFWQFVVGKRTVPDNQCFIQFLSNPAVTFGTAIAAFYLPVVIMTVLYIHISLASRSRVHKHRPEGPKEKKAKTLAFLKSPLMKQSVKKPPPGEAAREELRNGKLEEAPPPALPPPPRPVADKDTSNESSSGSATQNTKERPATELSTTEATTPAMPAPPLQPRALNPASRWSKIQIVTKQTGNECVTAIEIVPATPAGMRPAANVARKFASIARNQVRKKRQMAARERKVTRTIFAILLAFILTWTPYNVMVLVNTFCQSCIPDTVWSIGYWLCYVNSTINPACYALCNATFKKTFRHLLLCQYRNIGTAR

[3] = biological target: T3, Muscarinic acetylcholine receptor M2 (Homo sapiens, UniProt P08172); assay: Displacement of QNB from muscarinic M2 receptor
T3 sequence (P08172 whole entry): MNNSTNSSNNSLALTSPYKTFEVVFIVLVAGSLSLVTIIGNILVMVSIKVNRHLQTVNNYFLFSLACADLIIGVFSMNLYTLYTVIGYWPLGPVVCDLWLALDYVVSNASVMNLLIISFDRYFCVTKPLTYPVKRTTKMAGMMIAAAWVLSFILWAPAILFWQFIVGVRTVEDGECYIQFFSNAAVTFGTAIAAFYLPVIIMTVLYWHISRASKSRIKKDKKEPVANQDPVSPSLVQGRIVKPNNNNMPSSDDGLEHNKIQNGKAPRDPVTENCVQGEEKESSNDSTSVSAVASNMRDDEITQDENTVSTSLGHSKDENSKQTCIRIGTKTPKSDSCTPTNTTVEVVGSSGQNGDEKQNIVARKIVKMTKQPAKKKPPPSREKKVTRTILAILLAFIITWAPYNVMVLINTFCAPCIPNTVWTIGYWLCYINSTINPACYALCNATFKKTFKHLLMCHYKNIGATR

Row | IC50 [1] | IC50 [2] | IC50 [3] | Structure (SMILES)
1 | 0.007 µM | 0.01 µM | 0.006 µM | NC(N)=NCCCCCCCCC(=O)C(N)CCCN=C(N)N (stereo unspecified)
2 | 1.41 µM | 0.91 µM | 0.96 µM | CC(=O)NC(CCCNC(=N)N)C(=O)CCCCCCCCNC(=N)N (stereo unspecified)
